Measurements published in patent publication US10479786B2, “Protein kinase inhibitors” (Princeton Drug Discovery Inc, priority 2016, dated 2019).

Key:
DDR2 = target: T1, DDR2 (Homo sapiens, UniProt Q16832); assay: Off-chip Mobility Shift Assay, kinase inhibition; format: biochemical; details: at 10 nM; recombinant DDR2; read-out: inhibition
T1 construct: purchased Carna Biosciences, Inc
T1 sequence (Q16832 22-855): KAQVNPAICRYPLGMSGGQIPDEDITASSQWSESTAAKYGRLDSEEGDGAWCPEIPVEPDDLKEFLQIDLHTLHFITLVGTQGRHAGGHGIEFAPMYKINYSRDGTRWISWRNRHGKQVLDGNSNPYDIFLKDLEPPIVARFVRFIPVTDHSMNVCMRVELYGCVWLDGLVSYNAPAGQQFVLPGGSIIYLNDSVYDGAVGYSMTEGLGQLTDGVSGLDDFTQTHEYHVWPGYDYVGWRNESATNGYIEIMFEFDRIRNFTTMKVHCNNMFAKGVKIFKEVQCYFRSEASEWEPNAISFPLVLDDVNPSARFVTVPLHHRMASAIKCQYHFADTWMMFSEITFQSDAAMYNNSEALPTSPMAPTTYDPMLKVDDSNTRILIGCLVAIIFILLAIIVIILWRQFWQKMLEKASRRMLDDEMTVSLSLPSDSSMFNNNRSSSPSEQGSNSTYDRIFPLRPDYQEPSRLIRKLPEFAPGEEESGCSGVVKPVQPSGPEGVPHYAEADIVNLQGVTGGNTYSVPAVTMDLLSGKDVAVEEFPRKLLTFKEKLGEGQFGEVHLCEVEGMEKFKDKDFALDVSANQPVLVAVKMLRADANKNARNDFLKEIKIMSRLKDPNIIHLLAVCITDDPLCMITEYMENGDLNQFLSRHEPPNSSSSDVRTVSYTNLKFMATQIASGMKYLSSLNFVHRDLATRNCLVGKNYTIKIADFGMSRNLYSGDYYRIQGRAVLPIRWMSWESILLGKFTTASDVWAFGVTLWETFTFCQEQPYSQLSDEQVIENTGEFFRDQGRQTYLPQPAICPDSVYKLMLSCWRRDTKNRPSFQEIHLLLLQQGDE

BLK = target: T2, BLK (Homo sapiens, UniProt P51451); assay: Off-chip Mobility Shift Assay, kinase inhibition; format: biochemical; details: at 10 nM; recombinant BLK
T2 construct: purchased Carna Biosciences, Inc

FGR = target: T3, FGR (Homo sapiens, UniProt P09769); assay: Off-chip Mobility Shift Assay, kinase inhibition; format: biochemical; details: at 10 nM; recombinant FGR; read-out: inhibition
T3 construct: purchased Carna Biosciences, Inc

ACK = target: T4, ACK (Homo sapiens, UniProt Q07912); assay: Off-chip Mobility Shift Assay, kinase inhibition; format: biochemical; details: at 10 nM; recombinant ACK
T4 construct: purchased Carna Biosciences, Inc

PDGFRα = target: T5, PDGFRα (Homo sapiens, UniProt P16234); assay: Off-chip Mobility Shift Assay, kinase inhibition; format: biochemical; details: at 10 nM; recombinant PDGFRα; read-out: inhibition
T5 construct: purchased Carna Biosciences, Inc

HCK = target: T6, HCK (Homo sapiens, UniProt P08631); assay: Off-chip Mobility Shift Assay, kinase inhibition; format: biochemical; details: recombinant HCK; for inhibition at 0.001 µM: at 1 nM; for inhibition at 0.01 µM: at 10 nM, read-out: inhibition
T6 construct: purchased Carna Biosciences, Inc

ARG = target: T7, ARG (Homo sapiens, UniProt P42684); assay: Off-chip Mobility Shift Assay, kinase inhibition; format: biochemical; details: at 10 nM; recombinant ARG; read-out: inhibition
T7 construct: purchased Carna Biosciences, Inc

ABL = target: T8, ABL (Homo sapiens, UniProt P00519); assay: Off-chip Mobility Shift Assay, kinase inhibition; format: biochemical; details: recombinant ABL; for inhibition at 0.001 µM: at 1 nM; for inhibition at 0.01 µM: at 10 nM
T8 construct: purchased Carna Biosciences, Inc

Mino = assay: Cell inhibition assay (PrestoBlue, 48 h); format: cell-based; details: Homo sapiens, Mino cells, read-out: IC50, inhibition of growth
LYNa = target: T9, LYNa (Homo sapiens, UniProt P07948); assay: Off-chip Mobility Shift Assay, kinase inhibition; format: biochemical; details: recombinant LYNa; for inhibition at 0.001 µM: at 1 nM; for inhibition at 0.01 µM: at 10 nM, read-out: inhibition
T9 construct: purchased Carna Biosciences, Inc

PIK3CA/PIK3R1 = target: T10, PIK3CA/PIK3R1 (Homo sapiens, UniProt P42336); assay: Off-chip Mobility Shift Assay, kinase inhibition; format: biochemical; details: at 10 nM; recombinant PIK3CA/PIK3R1
T10 construct: purchased Carna Biosciences, Inc

[1] = test system: battery of selected protein kinases; assay: In vitro screen of a battery of selected protein kinases (summary statement); format: biochemical; details: BTK, BMX, ABL, ABL(E255K), SRC, ACK, ARG, BLK, DDR2, EPHA, FGR, FMS, FRK, FYN, HCK, LCK, LYN, PDGFRα, PDGFRβ, YES, PIK3CA/PIK3R1, among others
FYN(isoform a) = target: T11, FYN(isoform a) (Homo sapiens, UniProt P06241); assay: Off-chip Mobility Shift Assay, kinase inhibition; format: biochemical; details: at 10 nM; recombinant FYN(isoform a)
T11 construct: purchased Carna Biosciences, Inc

SRC = target: T12, SRC (Homo sapiens, UniProt P12931); assay: Off-chip Mobility Shift Assay, kinase inhibition; format: biochemical; details: recombinant SRC; for inhibition at 0.001 µM: at 1 nM; for inhibition at 0.01 µM: at 10 nM
T12 construct: purchased Carna Biosciences, Inc

FRK = target: T13, FRK (Homo sapiens, UniProt P42685); assay: Off-chip Mobility Shift Assay, kinase inhibition; format: biochemical; details: at 10 nM; recombinant FRK
T13 construct: purchased Carna Biosciences, Inc

ABL(E255K) = target: T14, ABL(E255K) (Homo sapiens, UniProt P00519, E255K); assay: Off-chip Mobility Shift Assay, kinase inhibition; format: biochemical; details: recombinant ABL(E255K); for inhibition at 0.001 µM: at 1 nM; for inhibition at 0.01 µM: at 10 nM
T14 construct: purchased Carna Biosciences, Inc

PDGFRβ = target: T15, PDGFRβ (Homo sapiens, UniProt P09619); assay: Off-chip Mobility Shift Assay, kinase inhibition; format: biochemical; details: at 10 nM; recombinant PDGFRβ; read-out: inhibition
T15 construct: purchased Carna Biosciences, Inc

YES = target: T16, YES (Homo sapiens, UniProt P07947); assay: Off-chip Mobility Shift Assay, kinase inhibition; format: biochemical; details: recombinant YES; for inhibition at 0.001 µM: at 1 nM; for inhibition at 0.01 µM: at 10 nM
T16 construct: purchased Carna Biosciences, Inc

SU-DHL-4 = assay: Cell inhibition assay (PrestoBlue, 48 h); format: cell-based; details: Homo sapiens, SU-DHL-4, 48 h, SU-DHL-4 diffuse large B-cell lymphoma cells, read-out: IC50, inhibition of growth

T11 sequence (P06241 whole entry, canonical isoform): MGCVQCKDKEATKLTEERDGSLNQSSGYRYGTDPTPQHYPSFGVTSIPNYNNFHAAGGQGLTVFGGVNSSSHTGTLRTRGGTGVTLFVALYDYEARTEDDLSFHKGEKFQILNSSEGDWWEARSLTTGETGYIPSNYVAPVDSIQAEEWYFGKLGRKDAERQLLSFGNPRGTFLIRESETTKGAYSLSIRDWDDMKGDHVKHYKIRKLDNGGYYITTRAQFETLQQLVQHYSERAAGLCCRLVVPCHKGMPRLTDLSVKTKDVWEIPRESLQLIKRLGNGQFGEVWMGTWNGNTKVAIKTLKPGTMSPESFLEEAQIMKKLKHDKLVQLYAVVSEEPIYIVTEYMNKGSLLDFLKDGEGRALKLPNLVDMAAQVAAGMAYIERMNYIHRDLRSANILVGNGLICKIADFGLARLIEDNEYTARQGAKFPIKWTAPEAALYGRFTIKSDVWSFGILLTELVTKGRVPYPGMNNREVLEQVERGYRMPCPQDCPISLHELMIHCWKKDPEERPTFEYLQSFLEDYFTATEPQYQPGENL
T3 sequence (P09769 whole entry): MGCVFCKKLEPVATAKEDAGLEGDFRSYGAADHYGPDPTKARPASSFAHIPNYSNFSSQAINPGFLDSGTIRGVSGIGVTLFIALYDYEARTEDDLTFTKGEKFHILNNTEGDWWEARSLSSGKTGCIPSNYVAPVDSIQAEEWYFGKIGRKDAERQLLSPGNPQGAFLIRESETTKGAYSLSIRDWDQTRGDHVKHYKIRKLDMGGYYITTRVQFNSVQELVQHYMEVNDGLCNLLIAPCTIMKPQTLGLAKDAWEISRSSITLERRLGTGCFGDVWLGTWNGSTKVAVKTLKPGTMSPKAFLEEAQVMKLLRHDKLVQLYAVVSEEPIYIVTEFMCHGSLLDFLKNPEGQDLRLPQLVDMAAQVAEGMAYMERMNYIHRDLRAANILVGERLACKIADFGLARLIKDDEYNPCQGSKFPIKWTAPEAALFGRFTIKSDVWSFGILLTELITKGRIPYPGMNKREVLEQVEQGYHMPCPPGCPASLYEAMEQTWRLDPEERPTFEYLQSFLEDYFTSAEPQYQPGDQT
T6 sequence (P08631 whole entry): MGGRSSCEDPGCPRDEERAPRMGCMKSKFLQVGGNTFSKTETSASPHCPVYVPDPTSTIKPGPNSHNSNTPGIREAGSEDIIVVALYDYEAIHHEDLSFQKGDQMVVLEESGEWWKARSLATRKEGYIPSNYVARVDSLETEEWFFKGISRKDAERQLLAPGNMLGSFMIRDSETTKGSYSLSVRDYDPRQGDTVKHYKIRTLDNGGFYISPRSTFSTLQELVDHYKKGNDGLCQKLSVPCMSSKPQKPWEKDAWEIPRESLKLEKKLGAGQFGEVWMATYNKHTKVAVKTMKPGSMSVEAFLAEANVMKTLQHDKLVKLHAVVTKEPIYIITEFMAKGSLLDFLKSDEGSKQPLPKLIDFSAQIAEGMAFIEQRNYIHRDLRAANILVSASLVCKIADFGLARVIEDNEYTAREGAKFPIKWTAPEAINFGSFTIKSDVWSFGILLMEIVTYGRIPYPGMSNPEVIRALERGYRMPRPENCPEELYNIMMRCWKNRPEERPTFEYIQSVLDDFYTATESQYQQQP
T12 sequence (P12931 whole entry): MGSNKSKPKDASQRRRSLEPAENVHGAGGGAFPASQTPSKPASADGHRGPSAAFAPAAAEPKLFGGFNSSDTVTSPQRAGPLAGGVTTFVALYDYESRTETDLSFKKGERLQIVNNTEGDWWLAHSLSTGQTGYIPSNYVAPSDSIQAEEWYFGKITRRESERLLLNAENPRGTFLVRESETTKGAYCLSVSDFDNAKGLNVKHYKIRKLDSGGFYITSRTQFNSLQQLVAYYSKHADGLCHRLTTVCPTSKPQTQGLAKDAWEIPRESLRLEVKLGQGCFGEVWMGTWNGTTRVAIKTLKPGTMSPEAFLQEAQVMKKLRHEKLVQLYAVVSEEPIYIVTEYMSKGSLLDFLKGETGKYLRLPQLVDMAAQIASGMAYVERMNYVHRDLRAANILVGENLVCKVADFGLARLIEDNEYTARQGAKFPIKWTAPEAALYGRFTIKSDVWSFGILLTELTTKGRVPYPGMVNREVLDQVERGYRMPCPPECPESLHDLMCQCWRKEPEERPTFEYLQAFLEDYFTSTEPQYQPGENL
T4 sequence (Q07912 whole entry): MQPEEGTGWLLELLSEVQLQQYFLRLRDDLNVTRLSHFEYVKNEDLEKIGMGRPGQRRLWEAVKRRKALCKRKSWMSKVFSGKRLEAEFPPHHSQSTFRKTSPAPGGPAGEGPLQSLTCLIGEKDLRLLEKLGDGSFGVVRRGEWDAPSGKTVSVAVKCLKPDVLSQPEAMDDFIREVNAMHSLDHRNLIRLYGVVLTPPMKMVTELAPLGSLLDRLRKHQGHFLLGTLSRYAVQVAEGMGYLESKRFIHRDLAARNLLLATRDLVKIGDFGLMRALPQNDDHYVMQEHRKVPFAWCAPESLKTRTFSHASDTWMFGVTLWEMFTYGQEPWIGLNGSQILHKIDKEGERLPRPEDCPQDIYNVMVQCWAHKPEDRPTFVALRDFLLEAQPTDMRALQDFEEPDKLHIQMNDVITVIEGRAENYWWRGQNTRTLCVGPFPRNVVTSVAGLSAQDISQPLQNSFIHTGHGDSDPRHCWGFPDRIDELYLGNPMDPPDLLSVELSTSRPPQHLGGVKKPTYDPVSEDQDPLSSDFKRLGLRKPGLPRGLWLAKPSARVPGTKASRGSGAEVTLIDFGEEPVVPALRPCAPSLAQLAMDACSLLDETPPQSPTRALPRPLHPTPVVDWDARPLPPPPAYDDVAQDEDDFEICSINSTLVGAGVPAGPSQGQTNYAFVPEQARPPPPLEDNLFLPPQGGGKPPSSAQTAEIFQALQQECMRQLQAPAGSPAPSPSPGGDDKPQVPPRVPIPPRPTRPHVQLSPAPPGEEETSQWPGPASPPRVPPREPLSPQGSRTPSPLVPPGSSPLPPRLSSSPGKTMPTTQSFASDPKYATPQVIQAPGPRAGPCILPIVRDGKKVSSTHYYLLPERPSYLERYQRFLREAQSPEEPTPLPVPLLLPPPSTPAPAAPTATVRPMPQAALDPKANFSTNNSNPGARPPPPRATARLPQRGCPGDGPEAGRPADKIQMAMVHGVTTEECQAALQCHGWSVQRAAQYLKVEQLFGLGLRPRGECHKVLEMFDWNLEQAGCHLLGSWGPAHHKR
T14 sequence (P00519 whole entry E255K): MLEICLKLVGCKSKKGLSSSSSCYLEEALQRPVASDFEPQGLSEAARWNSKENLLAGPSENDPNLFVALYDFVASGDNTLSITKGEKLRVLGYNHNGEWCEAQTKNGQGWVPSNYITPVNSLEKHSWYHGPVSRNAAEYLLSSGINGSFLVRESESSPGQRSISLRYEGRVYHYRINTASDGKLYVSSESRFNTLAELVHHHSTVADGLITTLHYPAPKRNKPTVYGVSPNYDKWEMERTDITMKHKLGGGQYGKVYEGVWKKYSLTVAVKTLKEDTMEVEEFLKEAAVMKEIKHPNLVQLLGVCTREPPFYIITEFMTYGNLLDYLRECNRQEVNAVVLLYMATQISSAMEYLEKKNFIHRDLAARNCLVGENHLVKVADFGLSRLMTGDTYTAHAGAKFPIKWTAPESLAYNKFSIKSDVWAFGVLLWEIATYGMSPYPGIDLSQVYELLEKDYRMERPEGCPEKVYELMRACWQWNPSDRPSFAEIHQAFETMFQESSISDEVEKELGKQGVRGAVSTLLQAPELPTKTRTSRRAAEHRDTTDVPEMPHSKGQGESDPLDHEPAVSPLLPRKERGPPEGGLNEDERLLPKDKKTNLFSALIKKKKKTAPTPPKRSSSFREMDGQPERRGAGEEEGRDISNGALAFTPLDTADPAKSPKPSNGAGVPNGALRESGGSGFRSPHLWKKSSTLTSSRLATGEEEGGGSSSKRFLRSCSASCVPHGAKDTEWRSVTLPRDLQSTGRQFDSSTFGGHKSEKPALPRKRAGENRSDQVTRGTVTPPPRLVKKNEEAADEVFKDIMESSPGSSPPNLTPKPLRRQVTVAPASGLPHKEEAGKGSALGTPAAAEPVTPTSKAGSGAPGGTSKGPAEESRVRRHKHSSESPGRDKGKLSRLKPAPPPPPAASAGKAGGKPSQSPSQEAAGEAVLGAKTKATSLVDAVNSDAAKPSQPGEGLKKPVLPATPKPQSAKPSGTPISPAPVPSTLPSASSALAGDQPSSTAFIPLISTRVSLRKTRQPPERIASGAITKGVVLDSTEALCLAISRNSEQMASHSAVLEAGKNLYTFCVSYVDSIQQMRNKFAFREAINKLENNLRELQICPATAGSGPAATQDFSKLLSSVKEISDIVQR
T9 sequence (P07948 whole entry): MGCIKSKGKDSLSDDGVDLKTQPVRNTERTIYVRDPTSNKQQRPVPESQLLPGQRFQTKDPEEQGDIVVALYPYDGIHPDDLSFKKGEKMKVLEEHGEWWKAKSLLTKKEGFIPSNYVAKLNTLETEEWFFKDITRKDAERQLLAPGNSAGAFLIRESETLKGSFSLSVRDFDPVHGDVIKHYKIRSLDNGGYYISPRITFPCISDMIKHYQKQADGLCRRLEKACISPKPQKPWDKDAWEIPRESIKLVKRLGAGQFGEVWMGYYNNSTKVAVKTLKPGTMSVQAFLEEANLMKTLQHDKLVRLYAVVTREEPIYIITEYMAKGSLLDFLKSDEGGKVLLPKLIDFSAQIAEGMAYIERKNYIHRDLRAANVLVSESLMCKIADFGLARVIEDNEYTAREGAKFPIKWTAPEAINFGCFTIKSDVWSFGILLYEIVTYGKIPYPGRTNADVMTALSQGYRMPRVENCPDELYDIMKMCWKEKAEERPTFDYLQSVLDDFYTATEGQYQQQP
T8 sequence (P00519 whole entry): as the sequence (P00519 whole entry E255K) above, with K255E counted along it

Row | Compound | inhibition at 0.01 µM (DDR2) | inhibition at 0.01 µM (BLK) | inhibition at 0.01 µM (FGR) | inhibition at 0.01 µM (ACK) | inhibition at 0.01 µM (PDGFRα) | inhibition at 0.001 µM (HCK) | inhibition at 0.01 µM (HCK) | inhibition at 0.01 µM (ARG) | inhibition at 0.001 µM (ABL) | inhibition at 0.01 µM (ABL) | IC50 (Mino) | inhibition at 0.001 µM (LYNa) | inhibition at 0.01 µM (LYNa) | inhibition at 0.01 µM (PIK3CA/PIK3R1) | activity to inhibit kinases [1] | inhibition at 0.01 µM (FYN(isoform a)) | inhibition at 0.001 µM (SRC) | inhibition at 0.01 µM (SRC) | inhibition at 0.01 µM (FRK) | inhibition at 0.001 µM (ABL(E255K)) | further results
1 | [2H]c1cc(C)c(NC(=O)c2cnc(Nc3cc(N4CC[C@H](O)C4)nc(C)n3)s2)c(Cl)c1 [Compound IV, N-(2-chloro-4-deutero-6-methylphenyl)-2-[[2-methyl-6-((S)-3-hydroxypyrrolidin-1-yl)pyrimidin-4-yl]amino]thiazole-5-carboxamide] | > 50% | > 50% | > 50% | > 50% | > 50% | > 50% | > 50% | > 50% | > 50% | > 50% | < 0.05 µM | > 50% | > 50% | > 50% | potent activity | > 50% | > 50% | > 50% | > 50% | > 50% | inhibition at 0.01 µM (ABL(E255K)): > 50%; inhibition at 0.01 µM (PDGFRβ): > 50%; inhibition at 0.001 µM (YES): > 50%; inhibition at 0.01 µM (YES): > 50%; IC50 (SU-DHL-4): < 0.02 µM
2 | Cc1nc(Nc2ncc(C(=O)Nc3c(C)cccc3Cl)s2)cc(N2CCC(O)CC2)n1 [Compound IX, N-(2-chloro-6-methylphenyl)-2-[[2-methyl-6-(4-hydroxypiperidin-1-yl)pyrimidin-4-yl]amino]thiazole-5-carboxamide] | > 50% | > 50% | > 50% | > 50% | > 50% | > 50% | > 50% | > 50% | > 50% | > 50% | < 0.05 µM | > 50% | > 50% | > 50% | potent activity | > 50% | > 50% | > 50% | > 50% | > 50% | inhibition at 0.01 µM (ABL(E255K)): > 50%; inhibition at 0.01 µM (PDGFRβ): > 50%; inhibition at 0.001 µM (YES): > 50%; inhibition at 0.01 µM (YES): > 50%; IC50 (SU-DHL-4): < 0.02 µM
3 | [2H]c1cc(C)c(NC(=O)c2cnc(Nc3cc(N4CC[C@@H](O)C4)nc(C)n3)s2)c(Cl)c1 [Compound V, N-(2-chloro-4-deutero-6-methylphenyl)-2-[[2-methyl-6-((R)-3-hydroxypyrrolidin-1-yl)pyrimidin-4-yl]amino]thiazole-5-carboxamide] | > 50% | > 50% | > 50% | > 50% | > 50% | > 50% | > 50% | > 50% | > 50% | > 50% | < 0.05 µM | > 50% | > 50% | > 50% | potent activity | > 50% | > 50% | > 50% | > 50% | > 50% | inhibition at 0.01 µM (ABL(E255K)): > 50%; inhibition at 0.01 µM (PDGFRβ): > 50%; inhibition at 0.001 µM (YES): > 50%; inhibition at 0.01 µM (YES): > 50%; IC50 (SU-DHL-4): < 0.02 µM
4 | [2H]c1cc(C)c(NC(=O)c2cnc(Nc3cc(N4CC[C@H](N)C4)nc(C)n3)s2)c(Cl)c1 [Compound VI, N-(2-chloro-4-dutero-6-methylphenyl)-2-[[2-methyl-6-((S)-3-aminopyrrolidin-1-yl)pyrimidin-4-yl]amino]thiazole-5-carboxamide] | > 50% | > 50% | > 50% | > 50% | > 50% | > 50% | > 50% | > 50% | > 50% | > 50% | < 0.05 µM | > 50% | > 50% | > 50% | potent activity | > 50% | > 50% | > 50% | > 50% | > 50% | inhibition at 0.01 µM (ABL(E255K)): > 50%; inhibition at 0.01 µM (PDGFRβ): > 50%; inhibition at 0.001 µM (YES): > 50%; inhibition at 0.01 µM (YES): > 50%; IC50 (SU-DHL-4): < 0.02 µM
